We go through 1 compound from BindingDB's records for doi:10.1016/s0960-894x(02)00954-x (A.P.S. University, 2003).

This test has as its target Carbonic anhydrase 2 (Homo sapiens, UniProt P00918). Nature of the test: Inhibition of human carbonic anhydrase II (CAII).

In turn, `NS(=O)(=O)c1cccc(N2C(=O)c3cccnc3C2=O)c1` returned a Ki of 400 nM.

Usually Ki stands for a dissociation constant, usually derived from enzyme kinetics or from competition with a known ligand. Lower therefore signals higher affinity.
